Patent US7888329B2, “Substituted aryl piperidinylalkynyladenosines as A2AR agonists” (PGxHealth, LLC, priority 2006, dated 2011)
Read-outs that look alike come from different tables or passages of the source.

Tests used:
[1] = biological target: T1, human A1 AR (Homo sapiens, UniProt P30542); assay: Radioligand competition binding with 125I-ABA, membranes of CHO K1 cells stably expressing the receptor
T1 construct: expressed in transfected cells; membranes
T1 sequence (P30542 1-326): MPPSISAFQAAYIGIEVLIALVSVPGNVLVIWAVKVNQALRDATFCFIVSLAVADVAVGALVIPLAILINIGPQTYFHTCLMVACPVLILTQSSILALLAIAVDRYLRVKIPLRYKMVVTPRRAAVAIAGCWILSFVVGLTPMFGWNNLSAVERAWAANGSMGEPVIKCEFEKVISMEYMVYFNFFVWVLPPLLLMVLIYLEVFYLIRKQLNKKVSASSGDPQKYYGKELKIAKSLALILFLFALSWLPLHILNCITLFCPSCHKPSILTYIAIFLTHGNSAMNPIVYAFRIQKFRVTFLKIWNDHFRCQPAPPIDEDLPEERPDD

[2] = biological target: T2, recombinant human A2A receptors (Homo sapiens, UniProt P29274); assay: Radioligand competition binding with 125I-APE or 125I-ZM241385, Sf9 cell membranes; conditions: 125I-APE or 125I-ZM241385, Sf9 membranes
T2 construct: expressed in transfected cells; host or cells: Sf9 insect cells infected with virus; membranes
Description: Cell culture and membrane preparation. Sf9 cells were cultured in Grace's medium supplemented with 10% fetal bovine serum, 2.5 μg/ml amphotericin B and 50 μg/ml gentamycin in an atmosphere of 50% N2/50% O2. Viral infection was performed at a density of 2.5×10^6 cells/mL with a multiplicity of infection of two for each virus used. Infected cells were harvested 3 days post-infection and washed twice in insect PBS (PBS pH 6.3). Cells were then resuspended in lysis buffer (20 mM HEPES pH 7.5, 150 mM NaCl, 3 mM MgCl2, 1 mM α-mercaptoethanol (BME), 5 μg/mL leupeptin, 5 μg/mL pepstatin A, 1 μg/mL aprotinin, and 0.1 mM PMSF) and snap frozen for storage at −80° C. Cells were thawed on ice, brought to 30 mL total volume in lysis buffer, and burst by N2 cavitation (600 psi for 20 minutes). A low-speed centrifugation was performed to remove any unlysed cells (1000×g for 10 minutes), followed by a high-speed centrifugation (17,000×g for 30 minutes). The pellet from the final centrifugation was homogenized in buffer containing 20 mM HEPES pH 8, 1100 mM NaCl, 1% glycerol, 2 μg/mL leupeptin, 2 μg/mL pepstatin A, 2 μg/mL Aprotinin, 0.1 mM PMSF, and 10 μM GDP using a small glass homogenizer followed by passage through a 26 gauge needle. Membranes were aliquoted, snap frozen in liquid N2, and stored at −80° C.
Radioligand Binding Assays. […] Binding experiments were performed in triplicate with 5 μg (A2A) or 25 μg (A1 and A3) membrane protein in a total volume of 00.1 mL HE buffer (20 mM HEPES and 1 mM EDTA) with 1 U/mL adenosine deaminase and 5 mM MgCl2 with or without 50 μM GTPγS. Membranes were incubated with radioligands at room temperature for three hours (for agonists) or two hours (for antagonists) in Millipore Multiscreen® 96-well GF/C filter plates and assays were terminated by rapid filtration on a cell harvester (Brandel, Gaithersburg, Md.) followed by 4×150 μl washes over 30 seconds with ice cold 10 mM Tris-HCl, pH 7.4, 10 mM MgCl2. Nonspecific binding was measured in the presence of 50 μM NECA.

[3] = biological target: T3, human A3 AR (Homo sapiens, UniProt P0DMS8); assay: Radioligand competition binding with 125I-ABA, membranes of HEK 293 cells stably expressing the receptor
T3 construct: expressed in transfected cells; membranes
T3 sequence (P0DMS8 1-318): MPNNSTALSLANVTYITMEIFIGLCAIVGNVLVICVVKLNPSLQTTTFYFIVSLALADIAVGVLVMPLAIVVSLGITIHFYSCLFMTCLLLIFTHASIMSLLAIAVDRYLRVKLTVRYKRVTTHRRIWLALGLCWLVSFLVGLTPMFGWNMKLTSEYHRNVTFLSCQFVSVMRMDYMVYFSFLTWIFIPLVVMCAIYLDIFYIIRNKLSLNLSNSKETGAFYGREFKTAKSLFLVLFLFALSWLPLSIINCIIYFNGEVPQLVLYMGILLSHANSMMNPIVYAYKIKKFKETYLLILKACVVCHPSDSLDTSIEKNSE
Description: Cell culture and membrane preparation. Sf9 cells were cultured in Grace's medium supplemented with 10% fetal bovine serum, 2.5 μg/ml amphotericin B and 50 μg/ml gentamycin in an atmosphere of 50% N2/50% O2. Viral infection was performed at a density of 2.5×10^6 cells/mL with a multiplicity of infection of two for each virus used. Infected cells were harvested 3 days post-infection and washed twice in insect PBS (PBS pH 6.3). Cells were then resuspended in lysis buffer (20 mM HEPES pH 7.5, 150 mM NaCl, 3 mM MgCl2, 1 mM α-mercaptoethanol (BME), 5 μg/mL leupeptin, 5 μg/mL pepstatin A, 1 μg/mL aprotinin, and 0.1 mM PMSF) and snap frozen for storage at −80° C. Cells were thawed on ice, brought to 30 mL total volume in lysis buffer, and burst by N2 cavitation (600 psi for 20 minutes). A low-speed centrifugation was performed to remove any unlysed cells (1000×g for 10 minutes), followed by a high-speed centrifugation (17,000×g for 30 minutes). The pellet from the final centrifugation was homogenized in buffer containing 20 mM HEPES pH 8, 1100 mM NaCl, 1% glycerol, 2 μg/mL leupeptin, 2 μg/mL pepstatin A, 2 μg/mL Aprotinin, 0.1 mM PMSF, and 10 μM GDP using a small glass homogenizer followed by passage through a 26 gauge needle. Membranes were aliquoted, snap frozen in liquid N2, and stored at −80° C. Membranes from cells stably expressing the human A1 AR (CHO K1 cells) or A3 AR (HEK 293 cells) were prepared as described (Robeva et al., 1996).
Radioligand Binding Assays. Radioligand binding to recombinant human A2A receptors in Sf9 cell membranes was performed using either the radiolabeled agonist, ^125I-APE (Luthin et al., 1995) or the radiolabeled antagonist, ^125I-ZM241385 (^125I-ZM). To detect the high affinity, GTPγS-sensitive state of A1 and A3 AR, we used the agonist, ^125I-ABA (Linden et al., 1985; Linden et al., 1993). Binding experiments were performed in triplicate with 5 μg (A2A) or 25 μg (A1 and A3) membrane protein in a total volume of 00.1 mL HE buffer (20 mM HEPES and 1 mM EDTA) with 1 U/mL adenosine deaminase and 5 mM MgCl2 with or without 50 μM GTPγS. Membranes were incubated with radioligands at room temperature for three hours (for agonists) or two hours (for antagonists) in Millipore Multiscreen® 96-well GF/C filter plates and assays were terminated by rapid filtration on a cell harvester (Brandel, Gaithersburg, Md.) followed by 4×150 μl washes over 30 seconds with ice cold 10 mM Tris-HCl, pH 7.4, 10 mM MgCl2. Nonspecific binding was measured in the presence of 50 μM NECA. Competition binding assays were performed as described (Robeva et al., 1996) using 0.5-1 nM ^125I-APE, ^125I-ZM241385, or ^125I-ABA. […] The Ki values for competing compound binding to a single site were derived from IC50 values with correction for radioligand and competing compound depletion as described previously (Linden, 1982).

[4] = system: Purified human neutrophils; assay: Luminol enhanced chemiluminescence (neutrophil oxidative activity), fMLP stimulated; format: cell-based; conditions: read-out: Functional
Description: Chemiluminescence Methods: Luminol enhanced chemiluminescence, a measure of neutrophil oxidative activity, is dependent upon both superoxide production and mobilization of the granule enzyme myeloperoxidase. The light is emitted from unstable high-energy oxygen species such as hypochlorous acid and singlet oxygen generated by activated neutrophils.
Purified human neutrophils (2×10^6/ml) suspended in Hanks balanced salt solution containing 0.1% human serum albumin (HA), adenosine deaminase (1 U/mL) and rolipram (100 nM) were incubated (37 C) in a water bath for 15 min with or without rhTNF (10 U/ml). Following incubation 100 µL aliquots of the PMN were transferred to wells (White walled clear bottom 96 well tissue culture plates Costar #3670; 2 wells/condition) containing […] and luminol (final concentration 100M) with or without adenosine agonist (final agonist concentrations 0.01-1000 nM). The plate was incubated 5 min (37 C) and then fMLP (50 l in HA; final concentration […]) was added to all wells.
Peak chemiluminescence was determined with a Victor 1420 Multilabel Counter in the chemiluminescence mode using the Wallac Workstation software. Data are presented as peak chemiluminescence as percent of activity in the absence of an adenosine agonist. The EC50 was determined using PRISM software. All compounds were tested with PMNs from three separate donors.

[5] = Ki derived from IC50, class symbols

T2 sequence (P29274 whole entry): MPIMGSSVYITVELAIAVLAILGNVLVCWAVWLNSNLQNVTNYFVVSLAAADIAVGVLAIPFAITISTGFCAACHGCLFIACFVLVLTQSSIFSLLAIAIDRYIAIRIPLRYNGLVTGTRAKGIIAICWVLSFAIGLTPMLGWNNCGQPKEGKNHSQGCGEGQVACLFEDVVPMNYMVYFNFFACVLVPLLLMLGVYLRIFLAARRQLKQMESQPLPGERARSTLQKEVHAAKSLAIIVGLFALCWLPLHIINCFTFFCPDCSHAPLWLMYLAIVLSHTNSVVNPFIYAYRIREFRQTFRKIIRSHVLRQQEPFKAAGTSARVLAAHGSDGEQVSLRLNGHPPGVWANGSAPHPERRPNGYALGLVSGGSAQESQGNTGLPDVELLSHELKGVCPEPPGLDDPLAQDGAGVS

| Compound | Ki ([1]; Ki derived from IC50) [nM] | Ki ([2]; Ki derived from IC50) [nM] | Ki ([3]; Ki derived from IC50) [nM] | EC50 ([4]; Homo sapiens, Neutrophil) [nM] | Ki [1, 5] [nM] | Ki ([2]; class symbols) [nM] | Ki [3, 5] [nM] | EC50 ([4]; EC50 of peak chemiluminescence, human PMN, rolipram 100 nM, fMLP, three donors, class symbols) [nM] |
| --- | --- | --- | --- | --- | --- | --- | --- | --- |
| Nc1nc(C#CCC2CCN(C(=O)Oc3ccccc3)CC2)nc2c1ncn2[C@@H]1O[C@H](C(=O)NC2CC2)C(O)[C@@H]1O (stereo partly drawn) [Compound 1, N-Cyclopropyl 2-{3-[1-(phenyloxycarbonyl)-4-piperidinyl]-1-propyn-1-yl}adenosine-5′-uronamide, reference compound] | 34.7 | 0.563 | 34.1 | 0.56 |  |  |  |  |
| Nc1nc(C#CCC2CCN(C(=O)OCc3ccccc3)CC2)nc2c1ncn2[C@@H]1O[C@H](C(=O)NC2CC2)C(O)[C@@H]1O (stereo partly drawn) [Compound 2, N-Cyclopropyl 2-{3-[1-(benzyloxycarbonyl)-4-piperidinyl]-1-propyn-1-yl}adenosine-5′-uronamide, reference compound] |  |  |  | < 1 | < 100 | < 1 | < 100 |  |
| Nc1nc(C#CCC2CCN(C(=O)Oc3cccc(C(F)(F)F)c3)CC2)nc2c1ncn2[C@@H]1O[C@H](C(=O)NC2CC2)C(O)[C@@H]1O (stereo partly drawn) [Compound 3, N-Cyclopropyl 2-{3-[1-(3-(trifluoromethyl)phenoxycarbonyl)-4-piperidinyl]-1-propyn-1-yl}adenosine-5′-uronamide] |  |  |  | < 10 | < 100 | < 1 | < 100 |  |
| Nc1nc(C#CCC2CCN(C(=O)Oc3ccccc3)CC2)nc2c1ncn2[C@@H]1O[C@H](CO)[C@@H](O)[C@H]1O [Compound 4, 2-{3-[1-(Phenoxycarbonyl)piperidin-4-yl]propyn-1-yl}adenosine, reference compound] |  |  |  | < 10 | < 100 | < 1 | < 10 |  |
| Nc1nc(C#CCC2CCN(C(=O)OCCOCc3ccccc3)CC2)nc2c1ncn2[C@@H]1O[C@H](C(=O)NC2CC2)C(O)[C@@H]1O (stereo partly drawn) [Compound 5, N-Cyclopropyl 2-{3-[1-(2-(benzyloxy)ethoxycarbonoyl)-4-piperidinyl]-1-propyn-1-yl}adenosine-5′-uronamide] |  |  |  | < 10 | < 100 | < 1 | < 100 |  |
| Nc1nc(C#CCC2CCN(C(=O)Oc3cccc(C(F)(F)F)c3)CC2)nc2c1ncn2[C@@H]1O[C@H](CO)C(O)[C@@H]1O (stereo partly drawn) [Compound 6, 2-{3-[1-((3-Trifluoromethyl)phenoxycarbonyl)piperidin-4-yl]propyn-1-yl}adenosine] |  |  |  | < 10 | < 100 | < 1 | < 10 |  |
| Nc1nc(C#CCC2CCN(C(=O)OCCOCc3ccccc3)CC2)nc2c1ncn2[C@@H]1O[C@H](CO)C(O)[C@@H]1O (stereo partly drawn) [Compound 7, 2-{3-[1-((2-Benzyloxy)ethoxycarbonyl)piperidin-4-yl]propyn-1-yl}adenosine] |  |  |  | < 10 | < 100 | < 1 | < 100 |  |
| Nc1nc(C#CCC2CCN(C(=O)Oc3ccc(F)cc3)CC2)nc2c1ncn2[C@@H]1O[C@H](C(=O)NC2CC2)C(O)[C@@H]1O (stereo partly drawn) [Compound 8, N-Cyclopropyl 2-{3-[1-(4-fluorophenoxycarbonyl)-4-piperidinyl]-1-propyn-1-yl}adenosine-5′-uronamide] |  |  |  | < 1 | < 100 | < 1 | < 100 |  |
| COC(=O)c1ccc(OC(=O)N2CCC(CC#Cc3nc(N)c4ncn([C@@H]5O[C@H](C(=O)NC6CC6)C(O)[C@@H]5O)c4n3)CC2)cc1 (stereo partly drawn) [Compound 9, N-Cyclopropyl 2-{3-[1-(4-methoxycarbonylphenoxycarbanoyl)-4-piperidinyl]-1-propyn-1-yl}adenosine-5′-uronamide] |  |  |  | < 10 | < 100 | < 1 | < 100 |  |
| Nc1nc(C#CCC2CCN(C(=O)Oc3ccc([N+](=O)[O-])cc3)CC2)nc2c1ncn2[C@@H]1O[C@H](C(=O)NC2CC2)C(O)[C@@H]1O (stereo partly drawn) [Compound 10, N-Cyclopropyl 2-{3-[1-(4-nitrophenyloxycarbonyl)-4-piperidinyl]-1-propyn-1-yl}adenosine-5′-uronamide] |  |  |  | < 1 | < 100 | < 1 | < 100 |  |
| N-Cyclopropyl 2-[3-[1-(4-nitrophenoxycarbonyl) 4-propylpiperidine]}-1-carboxylate]adenosine-5′-uronamide [Compound 40] |  |  |  |  |  |  | > 100 | < 100 |
